The values below come from patent US20200339544A1 (JOINT STOCK COMPANY "BIOCAD", priority 2017, published 2020).

pIC50: −log10 of the molar value. Read-outs that look alike come from different tables or passages of the source.

A short description of data set [1]: Chemical stability in human blood plasma. The data set is classed as in vitro ADME. The following applies: pooled human blood plasma; 10 μm; 4 hours at 37° C.; substance amount remaining. The gist of the method: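 Pooled plasma from ten healthy donors was spiked to 10 μM from a 10 mM DMSO stock and held 4 h at 37 °C. After acetonitrile protein precipitation, HPLC peak areas before and after incubation gave the percentage of compound remaining.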

The target of data set [2] is T1, WT EGFR (Wild-Type EGFR) (Homo sapiens, UniProt P00533).
T1 construct: purchased SignalChem
The experiment in a line: Inhibition of WT EGFR kinase activity (ADP-Glo). It is filed as biochemical. The gist of the method: (§1)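 Recombinant WT or double-mutant EGFR was incubated with a solution of 0.5 mg/mL peptide substrate and 50 μM ATP for 180 minutes at 37° C. Kinase activity was detected by ADP-Glo luminescence. IC50 values came from a four-parameter logistic fit.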

For data set [3], the system named is A549 (lung adenocarcinoma, WT). In words: Antiproliferative activity on A549 cells (Alamar Blue). The data set is classed as cell-based. Conditions: Homo sapiens, antiproliferative test. The gist of the method:
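Cells seeded at 5*10^3/well in RPMI-1640 with 2% FBS, attached 16-18 h at 37° C, then exposed to compounds (≤1% DMSO) for 72 h. Alamar Blue added for 3-5 h; fluorescence read at 540/590 nm. IC50 from four-parameter logistic fit.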
In general terms: Alamar Blue is a resazurin reagent that responds to reducing activity.

Data set [4] is described as follows: General cytotoxicity on HepG2 cells. It is filed as cell-based. Conditions: human; general cytotoxicity, HepG2 cells, 72 hours, average of several tests. An outline of the steps: (§2)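 HepG2 cells seeded at 2*10^4 cells per well and compounds added in DMEM with 2% FBS for 72 h at 37 °C. Viability read with Alamar Blue and CC50 derived as for IC50. Therapeutic index taken as HepG2 CC50 over H1975 IC50.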

Data set [5] has as its system HepG2 cells. The experiment in a line: General cytotoxicity on HepG2 cells. The data set is classed as cell-based. Conditions: therapeutic index, CC50 HepG2 / IC50 H1975. The gist of the method: as §2
Data set [6] can be described thus: Enzyme stability in human liver S9 fractions. It is filed as in vitro ADME. Conditions: 0.5 mg/mL pooled human liver S9 fractions; 10 μM compound; 37° C.; pH 7.4; read-out: Stability in liver S9 fractions, Clint. An outline of the steps: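 Compound at 10 μM was incubated at 37 °C with 0.5 mg/mL pooled human liver S9, 2 mM β-NAD and 4 mM MgCl2 in 0.1 M sodium phosphate, pH 7.4, then quenched with acetonitrile and analysed chromatographically. T½ and CLint were derived from the slope of log peak area versus time.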

Data set [7] has as its target T2, DM EGFR (DoubleMutantEGFR, L828R/T790M) (Homo sapiens, UniProt P00533, L858R/T790M).
T2 construct: purchased SignalChem
The experiment in a line: Inhibition of DM EGFR kinase activity (ADP-Glo). It is filed as biochemical. The following applies: for pIC50: inhibition of kinase activity, EGFR DM (L828R/T790M); for SI, IC50(WT)/IC50(DM): selectivity index, kinase EGFR WT vs EGFR DM. The gist of the method: as §1
(In ADP-Glo the light output rises with the ADP produced.)

Data set [8] has as its system HCC827 (lung adenocarcinoma, SM, exon19delE746-A750). In words: Antiproliferative activity on HCC827 cells (Alamar Blue). The data set is classed as cell-based. The following applies: Homo sapiens, antiproliferative test. On the procedure: Antiproliferative activity of EGFR inhibitors (Tables 15 and 16) was measured in cell-based bioassay on continuous epithelial cell cultures: A549 (lung adenocarcinoma, ATCC® CRM-CCL-185™—WT), HCC827 (lung adenocarcinoma, ATCC® CRL-2868™—SM (SingleMutantEGFR, exon19delE746-A750)) and H1975 (lung adenocarcinoma, ATCC® CRL-5908™—DM (DoubleMutantEGFR, L828R/T790M)) using cell viability reagent Alamar Blue (ThermoFisher, # DAL1100). Cells were cultured in 10% FBS-supplemented (Gibco, #16140071) RPMI-1640 (PanEco, S330p) for at least 1 passage after thawing, washed with PBS and passaged in 96-well culture plates (3599, Corning) with RPMI-1640 growth medium supplemented with 2% FBS in an amount of 5*10^3 cells/well for A549, 10*10^3 cells/well for HCC827 and 15*10^3 cells/well for H1975 in 100 μL, and incubated at 37° C. in an incubator (Thermo Forma, USA) under 5% of CO2 for 16-18 h for cell attachment.
The test compounds were dissolved in DMSO in the selected range of concentrations and transferred to RPMI-1640 medium (PanEco, S330p) supplemented with 2% FBS. After adding 50 μl of the prepared dilutions to the cells, the incubation mixture contained the final concentrations of the test substances and no more than 1% DMSO. The plates were Incubated at 37° C. for 72 h. After incubation, 15 μl of Alamar Blue vital dye (ThermoFisher, # DAL1100) was added to each well. The plates were shaken on an orbital shaker (Biosan, Latvia) and further incubated for 3-5 h in a CO2 incubator (Thermo Forma, USA). Number of living cells was estimated using a plate spectrophotometer Infinite M200Pro, (Tecan, Switzerland) measuring fluorescent signal at the excitation wavelength (λEx) of 540 nm and emission wavelength (λEm) of 590 nm.
IC50 was calculated using Magellan 7.2 software (Tecan, Switzerland) approximating experimental points by four-parameter logistic model with the optimization by Levenberg-Marquardt.

The test system of data set [9] is H1975 (lung adenocarcinoma, DM, L828R/T790M). In words: Antiproliferative activity on H1975 cells (Alamar Blue). The data set is classed as cell-based. The following applies: for pIC50: Homo sapiens, NCI-H1975, H1975 cells; for SI IC50(A549)/IC50(DM): selectivity index, A549 vs H1975 cells. The gist of the method:
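H1975 cells (15*10^3/well) attached 16-18 h in RPMI-1640 with 2% FBS, then exposed to compounds (≤1% DMSO final) for 72 h at 37 °C. Viability by Alamar Blue fluorescence (Ex 540/Em 590 nm) after 3-5 h; IC50 from four-parameter logistic fit.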

Data set [10] in a line: Chemical stability in simulated gastric fluid (SGF). It is filed as physicochemical. Conditions: SGF without enzymes, pH 1,4; 10 μm; 2 hours at 37° C.; substance amount remaining. On the procedure:
(§3) 1) Determination of chemical stability in simulated intestinal fluid, simulated gastric fluid and human blood plasma.
(§4) SGF concentrate without enzymes, pH=1,4 (Sigma Ireland, cat #01651) was used as simulated gastric fluid. Initial candidate solution (10 mM in DMSO) was diluted with a SGF working solution to a concentration of 10 μm (test solution). The test solution was incubated in a dry block thermostat for 2 hours at 37° C. SIF concentrate without enzymes, pH=6.5 (Sigma Ireland, cat #55331) was used as simulated intestinal fluid. Initial candidate solution (10 mM in DMSO) was diluted with a SIF working solution to a concentration of 10 μm (test solution). The test solution was incubated in a dry block thermostat for 2 hours at 37° C. HPLC with Agilent 1200 liquid chromatography system (Agilent, USA) was employed to determine peak areas of the compounds in test samples, said peak areas corresponding to the initial test time (prior to incubation) and the final test time (after incubation in a dry block thermostat for 2 hours at 37° C.). We used gradient elution (1 mL/min flow rate). Substance amount in % in a sample after thermostatting was determined.
(§5) The stability of the compounds was estimated.

Data set [11] can be described thus: Chemical stability in simulated intestinal fluid (SIF). The data set is classed as physicochemical. The following applies: SIF without enzymes, pH 6.5; 10 μm; 2 hours at 37° C.; substance amount remaining. Here is the method:
as §3, §4, §5

Where [12] appears, read: average values obtained in several tests, Table 16, read-out: H1975 (DM) IC50.
Setting [13] is: antiproliferative test, Table 15, read-out: IC50 H1975 (DM).

In general, pIC50 refers to −log10 of the IC50, conventionally taken in molar units. As usually defined, the CC50 is the concentration at which the toxic effect on the cells reaches its halfway point. The low end stands for harm at low concentration, the high end for better tolerance by the cells. As for `C=CC(=O)Nc1cc(Nc2nccc(C(=O)c3ccc(OC4CCCCC4)cc3)n2)c(OC)cc1N(C)CCN(C)C` [EGFR_3365_67, N-(5-((4-(4-(cyclohexyloxy)benzoyl)pyrimidin-2-yl)amino)-2-((2-(dimethylamino)ethyl)(methyl)amino)-4-methoxyphenyl)acrylamide], the “Stability in blood plasma, %” value in [1] is recorded as 92.8%. Also, the pIC50 in data set [2] is 7.01; in data set [3], 5.61; in data set [7], 7.98; in data set [8], 7.58; in data set [9] (setting [12]) it was 6.66; in [9] (setting [13]) it was 6.66. For the same compound, half-maximal cytotoxicity in [4] (CC50 at 72 h) was put at 9460 nM. Also, in data set [5], the “TI, CC50/IC50” value stood at 43. The Intrinsic clearance in human liver S9 fractions at 10 µM in data set [6] was determined as 18.7 µL/min/mg. Besides, the “SI, IC50(WT)/IC50(DM)” value in data set [7] is on record as 9.27. In data set [9], the “SI IC50(A549)/IC50(DM)” value stood at 11.
For `C=CC(=O)Nc1cc(Nc2nccc(C(=O)c3ccc(OC(C)C)cc3OC(C)C)n2)c(OC)cc1N(C)CCN(C)C` [EGFR_3365_71, N-(5-((4-(2,4-diisopropoxybenzoyl)pyrimidin-2-yl)amino)-2-((2-(dimethylamino)ethyl)(methyl)amino)-4-methoxyphenyl)acrylamide], in data set [1], the “Stability in blood plasma, %” value is on record as 100.0%. The “Stability in SGF, %” value in [10] is 100.0%. Besides, the “Stability in SIF, %” value in data set [11] is 100.0%.
On to `C=CC(=O)Nc1cc(Nc2cc(C(=O)c3ccc(OCC(C)C)cc3)ccn2)c(OC)cc1N(C)CCN(C)C` [EGFR_3365_77, N-(2-((2-(dimethylamino)ethyl)(methyl)amino)-5-((4-(4-isobutoxybenzoyl)pyridin-2-yl)amino)-4-methoxyphenyl) acrylamide], for which the pIC50 in [2] was 7.30; in data set [3], 5.66; in [7] it was 8.30; in data set [8] it was 7.63; in data set [9] (setting [12]), 6.60; in data set [9] (setting [13]), 6.60. The CC50 at 72 h in data set [4] was determined as 8340 nM. Moreover, the “TI, CC50/IC50” value in data set [5] stood at 33. For the same compound, the “SI, IC50(WT)/IC50(DM)” value in [7] was found to be 10.04. Further, in data set [9], the “SI IC50(A549)/IC50(DM)” value is 9.
With `C=CC(=O)Nc1cc(Nc2nccc(C(=O)c3ccc(OCC(C)C)cc3)n2)c(OC)cc1N(C)CCN(C)C` [EGFR_3365_78, N-(2-((2-(dimethylamino)ethyl)(methyl)amino)-5-((4-(4-isobutoxybenzoyl)pyrimidin-2-yl)amino)-4-methoxyphenyl) acrylamide], the “Stability in blood plasma, %” value in [1] is given as 81.7%. Also, in data set [10], the “Stability in SGF, %” value was 91.1%. Besides, the “Stability in SIF, %” value in [11] was 91.1%.
With `C=CC(=O)Nc1cc(Nc2nccc(C(=O)c3ccc(-n4ccnc4)cc3)n2)c(OC)cc1N(C)CCN(C)C` [EGFR_3365_86, N-(5-((4-(4-(1H-imidazol-1-yl)benzoyl)pyrimidin-2-yl)amino)-2-((2-(dimethylamino)ethyl) (methyl)amino)-4-methoxyphenyl)acrylamide], the “Stability in blood plasma, %” value in data set [1] is recorded as 100.0%. Also, in [10], the “Stability in SGF, %” value is 99.7%. Also, in [11], the “Stability in SIF, %” value was 99.4%.
For the compound `C=CC(=O)Nc1cc(Nc2nccc(C(=O)c3ccc(N4CCN(C)CC4)cc3OC)n2)c(OC)cc1N(C)CCN(C)C` [EGFR_3365_120, N-(2-((2-(dimethylamino)ethyl)(methyl)amino)-4-methoxy-5-((4-(2-methoxy-4-(4-methylpiperazin-1-yl)benzoyl)pyrimidin-2-yl)amino)phenyl)acrylamide], the “Stability in blood plasma, %” value in data set [1] came out at 100.0%. Further, the negative-log IC50 (pIC50) in data set [2] is 7.51; in data set [3], 4.79; in data set [7], 8.63; in data set [8], 8.28; in [9] (setting [12]) it was 8.35; in data set [9] (setting [13]), 8.35. Further, in [4], the midpoint of cytotoxicity, the CC50 at 72 h, lay at 29300 nM. The “TI, CC50/IC50” value in data set [5] was found to be 6514. In addition, the Intrinsic clearance in human liver S9 fractions at 10 µM in [6] turned out to be 3.8 µL/min/mg. For the same compound, the “SI, IC50(WT)/IC50(DM)” value in [7] stood at 13.01. Besides, in data set [9], the “SI IC50(A549)/IC50(DM)” value is 3644.
For `C=CC(=O)Nc1cc(Nc2nccc(C(=O)c3ccc(N4CCC(N(C)C)CC4)cc3)n2)c(OC)cc1N(C)CCN(C)C` [EGFR_3365_121a, N-(2-((2-(dimethylamino)ethyl)(methyl)amino)-5-((4-(4-(4-(dimethylamino)piperidin-1-yl)benzoyl)pyrimidin-2-yl)amino)-4-methoxyphenyl) acrylamide], the “Stability in blood plasma, %” value in data set [1] is on record as 99.0%. Besides, the negative-log IC50 (pIC50) in [2] was 7.53; in data set [3], 5.49; in data set [7], 9.02; in [8], 7.87; in [9] (setting [12]), 8.59; in data set [9] (setting [13]), 8.59. In addition, it took 11800 nM to reach half-maximal cytotoxicity in data set [4] (CC50 at 72 h). Also, the “TI, CC50/IC50” value in data set [5] was found to be 4649. In addition, the Intrinsic clearance in human liver S9 fractions at 10 µM in data set [6] was found to be 2.1 µL/min/mg. In addition, the “SI, IC50(WT)/IC50(DM)” value in data set [7] is 30.92. The “SI IC50(A549)/IC50(DM)” value in data set [9] is 1284.
